Assays:
Ba/F3-BCR-ABL1-WT cells = target: T1, Ba/F3-BCR-ABL1-WT cells (Homo sapiens, UniProt P00519); experiment: Ba/F3-BCR-ABL1-WT cell proliferation assay; format: cell-based, murine; settings: 48 hours; read-out: Ba/F3-BCR-ABL1-WT IC50
T1 construct: fused on or other part: P11274 (Breakpoint cluster region protein)

[1] = target: T2, Ba/F3-BCR-ABL1-T315I cells (Homo sapiens, UniProt P00519, T315I, cells depend on it); experiment: Ba/F3-BCR-ABL1-T315I cell proliferation assay; format: cell-based, murine; settings: 48 hours; read-out: Ba/F3-BCR-ABL1-T315I IC50
T2 construct: A similar approach was used to generate Ba/F3 cells that depend on a BCR-ABL1 variant in which threonine 315 is replaced with isoleucine; fused on or other part: P11274 (Breakpoint cluster region protein)

ABL1 (64-515) [2] = target: T3, ABL1 (64-515) (Homo sapiens, UniProt P00519); experiment: Radio ABL1 (64-515) radiometric filter-binding assay; format: biochemical
T3 construct: 3.5 nM ABL (ABL(64-515), produced in-house from E. coli); His6 followed by a PreScission protease cleavage site (N, cleaved yes); made in house; host or cells: E. coli (BL21 (DE3) according to b733)

ABL1 (64-515) [3] = target: T3, ABL1 (64-515); experiment: Caliper ABL1 (64-515) microfluidic mobility shift assay; format: biochemical; settings: Table of Biochemical Data

Row | GI50 (Ba/F3-BCR-ABL1-WT cells) [nM] | GI50 [1] [nM] | IC50 (ABL1 (64-515) [2]) [nM] | IC50 (ABL1 (64-515) [3]) [nM] | Structure (SMILES)
1 | 11.7 | 327 | 3.4 | 1.3 | Cc1cn[nH]c1-c1cc(C(=O)Nc2ccc(OC(F)(F)F)cc2)cnc1N1CC[C@@H](O)C1 [Example 4, (R)-6-(3-Hydroxypyrrolidin-1-yl)-5-(4-methyl-1H-pyrazol-5-yl)-N-(4-(trifluoromethoxy)phenyl)nicotinamide]
2 | 31.8 | 715 | 0.4 | 4.3 | CC(F)(F)Oc1ccc(NC(=O)c2cnc(N3CC[C@@H](O)C3)c(-c3ccn[nH]3)c2)cc1 [Example 30, (R)—N-(4-(1,1-Difluoroethoxy)phenyl)-6-(3-hydroxypyrrolidin-1-yl)-5-(1H-pyrazol-5-yl)nicotinamide]
3 | 1.7 | 42 | 7 | 0.5 | Cc1cc(-c2cc(C(=O)Nc3ccc(OC(F)(F)Cl)cc3)cnc2N2CC[C@@H](O)C2)[nH]n1 [Example 23, (R)—N-(4-(Chlorodifluoromethoxy)phenyl)-6-(3-hydroxypyrrolidin-1-yl)-5-(3-methyl-1H-pyrazol-5-yl)nicotinamide]
4 | 4 | 149 | 1 | 1.3 | NC[C@@H]1CCN(c2ncc(C(=O)Nc3ccc(OC(F)(F)Cl)cc3)cc2-c2ccn[nH]2)C1 [Example 21, (S)-6-(3-(Aminomethyl)pyrrolidin-1-yl)-N-(4-(chlorodifluoromethoxy)phenyl)-5-(1H-pyrazol-5-yl)nicotinamide]
5 | 7.5 | 150 | 2.8 | 1.9 | Cn1ccc(-c2cc(C(=O)Nc3ccc(OC(F)(F)Cl)cc3)cnc2N2CC[C@@H](O)C2)n1 [Example 28, (R)—N-(4-(Chlorodifluoromethoxy)phenyl)-6-(3-hydroxypyrrolidin-1-yl)-5-(1-methyl-1H-pyrazol-3-yl)nicotinamide]
6 | 1.5 | 32 | 6 | 0.6 | Cc1cn[nH]c1-c1cc(C(=O)Nc2ccc(OC(F)(F)Cl)cc2)cnc1N1CC[C@@H](O)C1 [Example 33, (R)—N-(4-(Chlorodifluoromethoxy)phenyl)-6-(3-hydroxypyrrolidin-1-yl)-5-(4-methyl-1H-pyrazol-5-yl)nicotinamide]
7 | 7.5 | 133 | 4 | 0.7 | Cc1cc(-c2cc(C(=O)Nc3ccc(OC(F)(F)F)cc3)cnc2N2CC[C@@H](O)C2)[nH]n1 [Example 3, (R)-6-(3-Hydroxypyrrolidin-1-yl)-5-(3-methyl-1H-pyrazol-5-yl)-N-(4-(trifluoromethoxy)phenyl)nicotinamide]
8 | 1.9 | 44 | < 0.13 | 0.3 | O=C(Nc1ccc(OC(F)(F)Cl)cc1)c1cnc(N2CC[C@H](CO)C2)c(-c2ccn[nH]2)c1 [Example 10, (S)—N-(4-(Chlorodifluoromethoxy)phenyl)-6-(3-(hydroxymethyl)pyrrolidin-1-yl)-5-(1H-pyrazol-5-yl)nicotinamide]

Continued, molecule first:

Row | Structure (SMILES) | GI50 (Ba/F3-BCR-ABL1-WT cells) [nM] | GI50 [1] [nM] | IC50 (ABL1 (64-515) [2]) [nM] | IC50 (ABL1 (64-515) [3]) [nM]
9 | O=C(Nc1ccc(SC(F)(F)F)cc1)c1cnc(N2CC[C@@H](O)C2)c(-c2ccn[nH]2)c1 [Example 11, (R)-6-(3-Hydroxypyrrolidin-1-yl)-5-(1H-pyrazol-5-yl)-N-(4-((trifluoromethyl)thio)phenyl)nicotinamide] | 1 | 38 | < 3 | < 0.13
10 | O=C(Nc1ccc(OC(F)(F)F)c(F)c1)c1cnc(N2CC[C@@H](O)C2)c(-c2ccn[nH]2)c1 [Example 13, (R)—N-(3-Fluoro-4-(trifluoromethoxy)phenyl)-6-(3-hydroxypyrrolidin-1-yl)-5-(1H-pyrazol-5-yl)nicotinamide] | 9.6 | 150 | 10 | 0.6
11 | O=C(Nc1ccc(OC(F)(F)F)cc1)c1cnc(N2CC[C@@H](O)C2)c(-c2[nH]ncc2F)c1 [Example 5, (R)-5-(4-Fluoro-1H-pyrazol-5-yl)-6-(3-hydroxypyrrolidin-1-yl)-N-(4-(trifluoromethoxy)phenyl)nicotinamide] | 8.1 | 134 | 7 | 1.2
12 | O=C(Nc1ccc(OC(F)(F)C(F)(F)F)cc1)c1cnc(N2CC[C@@H](O)C2)c(-c2ccn[nH]2)c1 [Example 19, (R)-6-(3-Hydroxypyrrolidin-1-yl)-N-(4-(perfluoroethoxy)phenyl)-5-(1H-pyrazol-5-yl)nicotinamide] | 13.5 | 236 | 5 | 1.8
13 | O=C(Nc1ccc(C(F)(F)C(F)(F)Cl)cc1)c1cnc(N2CC[C@@H](O)C2)c(-c2ccn[nH]2)c1 [Example 31, (R)—N-(4-(2-Chloro-1,1,2,2-tetrafluoroethyl)phenyl)-6-(3-hydroxypyrrolidin-1-yl)-5-(1H-pyrazol-5-yl)nicotinamide] | 4.1 | 133 | 1 | 2.5
14 | O=C(Nc1ccc(SC(F)(F)F)c(F)c1)c1cnc(N2CC[C@@H](O)C2)c(-c2ccn[nH]2)c1 [Example 15, (R)—N-(3-Fluoro-4-((trifluoromethyl)thio)phenyl)-6-(3-hydroxypyrrolidin-1-yl)-5-(1H-pyrazol-5-yl)nicotinamide] | 1.9 | 31 | 11 | 0.3
15 | O=C(Nc1ccc(SC(F)(F)Cl)cc1)c1cnc(N2CC[C@@H](O)C2)c(-c2ccn[nH]2)c1 [Example 18, (R)—N-(4-((Chlorodifluoromethyl)thio)phenyl)-6-(3-hydroxypyrrolidin-1-yl)-5-(1H-pyrazol-5-yl)nicotinamide] | 1.5 | 32 | 2 | 0.2
16 | O=C(Nc1ccc(C(F)(F)C(F)(F)F)cc1)c1cnc(N2CC[C@@H](O)C2)c(-c2ccn[nH]2)c1 [Example 16, (R)-6-(3-Hydroxypyrrolidin-1-yl)-N-(4-(perfluoroethyl)phenyl)-5-(1H-pyrazol-5-yl)nicotinamide] | 4.1 | 92 | 12 | < 0.13
17 | O=C(Nc1ccc(SC(F)(F)F)cc1)c1cnc(N2CC[C@H](CO)C2)c(-c2ccn[nH]2)c1 [Example 12, (S)-6-(3-(Hydroxymethyl)pyrrolidin-1-yl)-5-(1H-pyrazol-5-yl)-N-(4-((trifluoromethyl)thio)phenyl)nicotinamide] | 1.9 | 38 | 6 | 0.5
18 | O=C(Nc1ccc(OC(F)(F)Cl)cc1)c1ccc(N2CC[C@@H](O)C2)c(-c2[nH]ncc2F)c1 [Example 24, (R)—N-(4-(Chlorodifluoromethoxy)phenyl)-3-(4-fluoro-1H-pyrazol-5-yl)-4-(3-hydroxypyrrolidin-1-yl)benzamide] | 1.1 | 22 | 5 | 0.4
19 | COC(=O)C1CCN(c2ncc(C(=O)Nc3ccc(OC(F)(F)Cl)cc3)cc2-c2ccn[nH]2)C1 (stereo not drawn) [Example 36, Methyl 1-(5-((4-(chlorodifluoromethoxy)phenyl)carbamoyl)-3-(1H-pyrazol-5-yl)pyridin-2-yl)pyrrolidine-3-carboxylate] | 1.9 | 71 |  | 2.1

Reference: patent US8829195B2, “Compounds and compositions for inhibiting the activity of ABL1, ABL2 and BCR-ABL1” (Novartis AG, priority 2012, dated 2014)
